Test [1] addresses T1, Type-B CCK receptor (Cavia porcellus, UniProt H0VZC5).
T1 construct: Cortical and pancreatic membranes were prepared as described; from tissue; host or cells: guinea pig cerebral cortex membranes
T1 sequence (H0VZC5 1-426): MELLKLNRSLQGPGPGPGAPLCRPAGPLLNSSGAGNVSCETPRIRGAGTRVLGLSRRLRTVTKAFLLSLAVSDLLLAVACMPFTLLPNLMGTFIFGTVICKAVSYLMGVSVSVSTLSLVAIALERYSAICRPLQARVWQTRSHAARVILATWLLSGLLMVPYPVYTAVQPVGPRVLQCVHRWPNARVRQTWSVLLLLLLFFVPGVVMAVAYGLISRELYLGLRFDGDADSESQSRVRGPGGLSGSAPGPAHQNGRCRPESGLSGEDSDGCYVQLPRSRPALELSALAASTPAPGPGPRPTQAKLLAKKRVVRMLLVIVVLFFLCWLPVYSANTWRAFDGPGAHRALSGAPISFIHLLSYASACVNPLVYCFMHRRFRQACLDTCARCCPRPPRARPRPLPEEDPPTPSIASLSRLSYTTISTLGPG
Description: Radioligand binding of [125I]BH-CCK-8 in guinea pig cerebral cortical membrane preparations. From the text:
(§1) CCK-8 [Asp-Tyr(SO3 H)-Met-Gly-Trp-Met-Asp-PheNH2 ], bestatin and phosphoramidion were purchased from Peptide International (Louisville, Ky.). EGTA (ethylene glycol-bis-(β-aminoethyl) N,N,N',N'-tetraacetic acid), HEPES (4-(2-hydroxyethyl)-1-piperazine-enthanesulfonic acid) and BSA (bovine serum albumin) were purchased from Sigma Chemical Co. (St. Louis, Mo.). [^125 I]-Bolton-Hunteer (BH-CCK-8) (specific activity, 2200 Ci/mmol) was obtained from New England Nuclear (Boston, Mass.). Male guinea pigs, 250 to 325 g, were obtained from Scientific Small Animal Laboratory and Farm (Arlington Heights, Ill.). Collagenase, code CLSPA was purchased from Worthington (Frehold, N.J.).
(§2) Protocol For Radioligand Binding Experiments in Guinea Pig Cerebral Cortical and Pancreatic Membrane Preparations
(§3) Cortical and pancreatic membranes were prepared as described (Lin and Miller; J. Pharmacol. Exp. Ther. 1985, 232:775-780,). In brief, cortex and pancreas were removed and rinsed with ice-cold saline. Visible fat and connective tissues were removed from the pancreas. […] The homogenates were entrifuged for 10 minutes at 1075×g and pellets were discarded. The supernatants were saved and centrifuged at 38,730×g for 20 minutes. The resultant pellets were rehomogenized in 25 mL of 50 mM Tris-HCl buffer with a Teflon-glass homogenizer, 5 up and down strokes. The homogenates were centrifuged again at 38,730×g for 20 minutes. Pellets werre then resuspended in 20 mM HEPES, containing 1 mM EGTA, 118 mM NaCl, 4.7 mM KCl, 5 mM MgCl2, 100 μM bestatin, 3 μM phosphoramidon, pH 7.4 at 22° C. with a Teflon-glass homogenizer, 15 up and down strokes. Resuspension volume for the cortex was 15-18 mL per gram of original wet weight and 60 mL per gram for the pancreas.
(§4) [^125 I]Bolton-Hunter CCK-8 and test compounds were diluted with HEPES-EGTA-salt buffer (see above) containing 0.5% BSA. To 1 mL Skatron polystyrene tubes were added 25 μL of test compounds, 25 μL of [^125 I]BH-CCK-8 and 200 μL of membrane suspension. The final BSA concentration was 0.1%. The cortical tissues were incubated at 30° C. for 150 minutes and pancreatic tissues were incubated at 37° C. for 150 min. Incubations were terminated by filtration using Skatron Cell Harvester and SS32 microfiber filter mats. […] IC50 s were determined from the Hill analysis.

The target of test [2] is T2, Type-A CCK receptor (Cavia porcellus, UniProt Q63931).
T2 construct: Cortical and pancreatic membranes were prepared as described; from tissue; host or cells: guinea pig pancreas membranes
T2 sequence (Q63931 1-430): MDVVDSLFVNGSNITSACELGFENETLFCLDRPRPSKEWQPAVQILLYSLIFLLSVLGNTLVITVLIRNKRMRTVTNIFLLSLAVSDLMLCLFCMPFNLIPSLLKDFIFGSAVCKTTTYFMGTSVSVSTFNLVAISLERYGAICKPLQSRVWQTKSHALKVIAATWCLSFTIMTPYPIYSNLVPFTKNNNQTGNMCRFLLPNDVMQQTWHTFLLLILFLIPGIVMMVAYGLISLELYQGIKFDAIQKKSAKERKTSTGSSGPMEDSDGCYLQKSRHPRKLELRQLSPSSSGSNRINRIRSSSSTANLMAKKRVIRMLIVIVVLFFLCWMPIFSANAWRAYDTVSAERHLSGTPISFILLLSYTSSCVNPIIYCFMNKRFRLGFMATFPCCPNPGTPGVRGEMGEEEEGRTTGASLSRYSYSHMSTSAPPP
Put plainly: Radioligand binding of [125I]BH-CCK-8 in guinea pig pancreatic membrane preparations.
Excerpt: as §1, §2, §3, §4

[3] abbreviates: guinea pig cortical membranes, 30° C., 150 minutes, read-out: IC50 (nM) 125I-BH-CCK-8 Type-B receptor.
[4] abbreviates: guinea pig pancreatic membranes, 37° C., 150 min, read-out: IC50 (nM) 125I-BH-CCK-8 Type-A receptor.

Read-outs that look alike come from different tables or passages of the source. *1 amine or outer side, *2 acyl side, *3 side chain or, on linkers, in order; H or OH if unused. Where a SMILES comes first, the peptide text is derived from it. Side-chain parts run from the residue outwards. [ ]: non-standard residue; d: D form. The star is where a group is joined. Desaminotyrosyl = O=C(CCc1ccc(O)cc1)*; NH(1-naphthyl) = c1ccc2c(N*)cccc2c1; NMeF = CN[C@@H](Cc1ccccc1)C(=O)O; X11 = O=C(C=Cc1ccc(Cl)c(Cl)c1)*; NMeD = CN[C@@H](CC(=O)O)C(=O)O; NH(2-Me-phenyl) = Cc1ccccc1N*; X18 = O=C(/C=C/c1ccc(Cl)cc1)*; X14 = O=[N+]([O-])c1ccccc1N*; X8 = O=C(C=Cc1ccc(O)c(O)c1)*; X7 = Cc1ccc(/C=C/C(=O)*)cc1; X13 = O=C(C=Cc1ccc(F)cc1)*; X21 = O=C(C=Cc1cccc(O)c1)*; X1 = O=C(C=Cc1ccc(O)cc1)*; X26 = Clc1cccc(Cl)c1N*; Boc = CC(C)(C)OC(=O)*; CO = O=C([*:1])[*:2]; NHPh = c1ccc(N*)cc1; NHtBu = CC(C)(C)N*; X16 = COc1ccccc1N*; X19 = Brc1ccccc1N*

In the case of `CC(C)(C)OC(=O)N[C@@H](Cc1c[nH]c2ccccc12)C(=O)N[C@@H](CCCCNC(=O)Nc1cccc2ccccc12)C(=O)N[C@@H](CC(=O)O)C(=O)N[C@@H](Cc1ccccc1)C(N)=O` [Example 28, t-BOC-Trp-Lys(ε-N-(α-naphthyl)aminocarbonyl)-Asp-PheNH2] (Boc-WK([CO-NH(1-naphthyl)])DF-NH2), the IC50 in test [1] was found to be 10000 nM. For the compound `CC(C)(C)OC(=O)N[C@@H](Cc1c[nH]c2ccccc12)C(=O)N[C@@H](CCCC/N=C(\S)Nc1ccccc1Cl)C(=O)N[C@@H](CC(=O)O)C(=O)N[C@@H](Cc1ccccc1)C(N)=O` [Example 37, t-BOC-Trp-Lys(ε-N-(2-chlorophenyl)aminothiocarbonyl)-Asp-PheNH2], in test [1] (setting [3]), the IC50 is 2900 nM.

With `CC(C)(C)OC(=O)N[C@@H](Cc1c[nH]c2ccccc12)C(=O)N[C@@H](CCCCNC(=O)Nc1c(Cl)cccc1Cl)C(=O)N[C@@H](CC(=O)O)C(=O)N[C@@H](Cc1ccccc1)C(N)=O` [Example 47, t-BOC-Trp-Lys(ε-N-(2,6-dichlorophenyl)aminocarbonyl)-Asp-PheNH2] (Boc-WK([CO-X26])DF-NH2), in test [1] (setting [3]), the IC50 was determined as 7000 nM. With `CC(C)(C)NC(=O)NCCCC[C@H](NC(=O)[C@H](Cc1c[nH]c2ccccc12)NC(=O)OC(C)(C)C)C(=O)N[C@@H](CC(=O)O)C(=O)N[C@@H](Cc1ccccc1)C(N)=O` [Example 32, t-BOC-Trp-Lys(ε-N-(t-butylaminocarbonyl))-Asp-PheNH2] (Boc-WK([CO-NHtBu])DF-NH2), in test [1] (setting [3]), the IC50 came to 5600 nM.

For `CC(C)(C)OC(=O)N[C@@H](Cc1c[nH]c2ccccc12)C(=O)N[C@@H](CCCCNC(=O)Nc1ccccc1)C(=O)N[C@@H](CC(=O)O)C(=O)N[C@@H](Cc1ccccc1)C(N)=O` [Example 29, t-BOC-Trp-Lys(ε-N-(phenylaminocarbonyl))-Asp-PheNH2] (Boc-WK([CO-NHPh])DF-NH2), in test [1] (setting [3]), the IC50 was found to be 1100 nM. `CC(C)(C)OC(=O)N[C@@H](Cc1c[nH]c2ccccc12)C(=O)N[C@@H](CCCCNC(=O)Nc1ccccc1[N+](=O)[O-])C(=O)N[C@@H](CC(=O)O)C(=O)N[C@@H](Cc1ccccc1)C(N)=O` [Example 34, t-BOC-Trp-Lys(ε-N-(2-nitrophenyl)aminocarbonyl)-Asp-PheNH2] (Boc-WK([CO-X14])DF-NH2) returned an IC50 in test [2] of 23 nM. For `CC(C)(C)OC(=O)N[C@@H](Cc1c[nH]c2ccccc12)C(=O)N[C@@H](CCCCNC(=O)C=Cc1ccc(O)c(O)c1)C(=O)N[C@@H](CC(=O)O)C(=O)N[C@@H](Cc1ccccc1)C(N)=O` [Example 14, t-BOC-Trp-Lys(ε-N-(3,4-dihydroxycinnamoyl))-Asp-PheNH2] (Boc-WK(X8)DF-NH2), the IC50 in test [2] came out at 33 nM. Regarding `CN(C(=O)[C@H](CC(=O)O)NC(=O)[C@H](CCCCNC(=O)C=Cc1ccc(O)cc1)NC(=O)[C@H](Cc1c[nH]c2ccccc12)NC(=O)OC(C)(C)C)[C@@H](Cc1ccccc1)C(N)=O` [Example 17, t-BOC-Trp-Lys(ε-N-(4-hydroxycinnamoyl))-Asp-(NMe)PheNH2] (Boc-WK(X1)D[NMeF]-NH2), in test [2] (setting [4]), the IC50 was 7 nM. Same read-out and setting: as for `COc1ccccc1NC(=O)NCCCC[C@H](NC(=O)[C@H](Cc1c[nH]c2ccccc12)NC(=O)OC(C)(C)C)C(=O)N[C@@H](CC(=O)O)C(=O)N[C@@H](Cc1ccccc1)C(N)=O` [Example 43, t-BOC-Trp-Lys(ε-N-(2-methoxyphenyl)aminocarbonyl)-Asp-PheNH2] (Boc-WK([CO-X16])DF-NH2), the figure is 23 nM. `CC(C)(C)OC(=O)N[C@@H](Cc1c[nH]c2ccccc12)C(=O)N[C@@H](CCCCNC(=O)CCc1ccc(O)cc1)C(=O)N[C@@H](CC(=O)O)C(=O)N[C@@H](Cc1ccccc1)C(N)=O` [Example 1, t-BOC-Trp-Lys(ε-N-(3-(4-hydroxyphenyl)propionyl))-Asp-PheNH2] (Boc-WK(Desaminotyrosyl)DF-NH2): the IC50 in test [2] came out at 124 nM. Compound `CC(C)(C)OC(=O)N[C@@H](Cc1c[nH]c2ccccc12)C(=O)N[C@@H](CCCCNC(=O)C=Cc1ccc(F)cc1)C(=O)N[C@@H](CC(=O)O)C(=O)N[C@@H](Cc1ccccc1)C(N)=O` [Example 7, t-BOC-Trp-Lys(ε-N-(4-fluorocinnamoyl))-Asp-PheNH2] (Boc-WK(X13)DF-NH2) came in with an IC50 in test [2] of 65 nM.

Regarding `CC(C)(C)OC(=O)N[C@@H](Cc1c[nH]c2ccccc12)C(=O)N[C@@H](CCCCNC(=O)Nc1ccccc1Br)C(=O)N[C@@H](CC(=O)O)C(=O)N[C@@H](Cc1ccccc1)C(N)=O` [Example 36, t-BOC-Trp-Lys(ε-N-(2-bromophenyl)aminocarbonyl)-Asp-PheNH2] (Boc-WK([CO-X19])DF-NH2), the IC50 in test [2] came out at 7 nM. For `CC(C)(C)OC(=O)N[C@@H](Cc1c[nH]c2ccccc12)C(=O)N[C@@H](CCCCNC(=O)C=Cc1cccc(O)c1)C(=O)N[C@@H](CC(=O)O)C(=O)N[C@@H](Cc1ccccc1)C(N)=O` [Example 5, t-BOC-Trp-Lys(ε-N-(3-hydroxycinnamoyl))-Asp-PheNH2] (Boc-WK(X21)DF-NH2), in test [2], the IC50 came to 37 nM.

On to `CN(C(=O)[C@H](CC(=O)O)NC(=O)[C@H](CCCCNC(=O)/C=C/c1ccc(Cl)cc1)NC(=O)[C@H](Cc1c[nH]c2ccccc12)NC(=O)OC(C)(C)C)[C@@H](Cc1ccccc1)C(N)=O` [Example 18, t-BOC-Trp-Lys(ε-N-(4-chlorocinnamoyl))-Asp-(NMe)PheNH2] (Boc-WK(X18)D[NMeF]-NH2), for which, in test [2], the IC50 stood at 22 nM. On the same count and under the same terms, as for `Cc1ccccc1/N=C(/S)NCCCC[C@H](NC(=O)[C@H](Cc1c[nH]c2ccccc12)NC(=O)OC(C)(C)C)C(=O)N[C@@H](CC(=O)O)C(=O)N[C@@H](Cc1ccccc1)C(N)=O` [Example 38, t-BOC-Trp-Lys(ε-N-(2-methylphenyl)aminothiocarbonyl)-Asp-PheNH2], the figure is 230 nM; as for `Cc1ccccc1NC(=O)NCCCC[C@H](NC(=O)[C@H](Cc1c[nH]c2ccccc12)NC(=O)OC(C)(C)C)C(=O)N(C)[C@@H](CC(=O)O)C(=O)N[C@@H](Cc1ccccc1)C(N)=O` [Example 60, t-BOC-Trp-Lys(ε-N-(2-methylphenyl)aminocarbonyl)-(NMe)Asp-PheNH2] (Boc-WK([CO-NH(2-Me-phenyl)])[NMeD]F-NH2), 4.3 nM. In the case of `Cc1ccc(/C=C/C(=O)NCCCC[C@H](NC(=O)[C@H](Cc2c[nH]c3ccccc23)NC(=O)OC(C)(C)C)C(=O)N[C@@H](CC(=O)O)C(=O)N[C@@H](Cc2ccccc2)C(N)=O)cc1` [Example 6, t-BOC-Trp-Lys(ε-N-(4-methylcinnamoyl))-Asp-PheNH2] (Boc-WK(X7)DF-NH2), the IC50 in test [2] is 71 nM. Still for that read-out and setting: for `CC(C)(C)OC(=O)N[C@@H](Cc1c[nH]c2ccccc12)C(=O)N[C@@H](CCCCNC(=O)C=Cc1ccc(Cl)c(Cl)c1)C(=O)N[C@@H](CC(=O)O)C(=O)N[C@@H](Cc1ccccc1)C(N)=O` [Example 15, t-BOC-Trp-Lys(ε-N-(3,4-dichlorocinnamoyl))-Asp-PheNH2] (Boc-WK(X11)DF-NH2) the value was 65 nM.
